Test results from patent EP2451450B1, “Inhibitors of proline racemase enzymes for the treatment of Trypanosoma spp infections” (Institut Pasteur, priority 2009, dated 2011).

Experiments:
T. cruzi = experiment: Capture ELISA of Vero cultures infected 17h with or without inhibitor; assay type: cell-based, Trypanosoma cruzi; details: 17h at 37°C, 10:1 parasite/cell ratio; 0-30 mM OxoPA, Br-OxoPA or 10-1000 µM PYC in DMSO; Fig. 9
Protocol: Flat-bottomed microtiter plates (Nunc, Denmark) were coated overnight at 4°C with rabbit anti-T. cruzi polyclonal antibodies and further blocked for 4 h at room temperature (RT) with 1% BSA, 0.05% Tween 20 in PBS. After washings, lysate samples from infected or control Vero cultures, or from T. cruzi, were then added and incubated at 4°C for 18h. Plates were washed with PBS-Tween and incubated for 2h at RT with polyclonal mouse anti-T. cruzi chronic serum, washed again and incubated for 1 h at RT with HRP-secondary antibodies. […] Optical densities were determined in a spectrophotometer at 450 nm and 650 nm and analyzed using Softmax Pro software.
To confirm the effect of the inhibitors in the initial steps of the host-parasite interaction, cultures were infected for 17h at 37°C at a 10:1 parasite/cell ratio with or without increasing doses of freshly prepared dilutions (0-30 mM) of OxoPA, Br-OxoPA (15), or (10-1000 µM) of PYC, previously dissolved in DMSO and further analyzed by capture ELISA (see methods and Fig. 9). […] Three ongoing studies were performed to determine whether TcPRAC inhibition by the new compounds affects parasite intracellular fate. To do this, host cells were infected for 17 hours then washed and different ligand concentrations (5 mM, 10 mM, 30, 100 mM) were added to the medium. The degree of infection was determined over 48 hours by capture ELISA. The number of parasites per well decreased in a dose-dependent manner (Fig. 7). These experiments indicate that TcPRAC inhibition by OxoPA and Br-OxoPA affects both cellular infection by T. cruzi and parasite development in tissues.

TcPRAC = molecular target: T1, TcPRAC (Trypanosoma cruzi, UniProt Q4DA80); experiment: L-proline racemization assay, formed D-proline determined by DAAOx test; assay type: biochemical; details: ligand 10 µM; 10 mM L-proline; 22.4 mg/ml TcPRAC; 5.0mM without ligand
T1 construct: implied only by nickel IMAC purification; made in house; host or cells: E. coli BL21 (DE3)
Protocol: Briefly, classical assays of Proline racemization induced by TcPRAC were performed in tubes in a final volume of 1.5 ml and optical rotations measured in a polarimeter 241MC (Perkin Elmer). Parallel assays of Proline racemization were transposed into microplates in a final volume of 100 µl, as follows: serial dilutions of L- Proline ranging from 40 mM to 2.5 mM were prepared in 0.2 M sodium acetate pH 6.0 containing 0.25 mM rTcPRAC and loaded into microplate wells in the presence or in the absence of 0 - 20 µM pyrrole-2 carboxylic acid (PYC) or of similar dilutions of unknown potential inhibitors. Specific control wells were included omitting the TcPRAC and/or the PYC.
Microplates were incubated for 30 minutes at 37° C. Enzyme activity was then inactivated by heating the plate for 15 seconds in a microwave oven at 900 watts after shifting the pH of wells to 8.3 by addition of 6.8 µl of 0.235 M sodium Pyrophosphate. 50 µl of each well were used to test the presence of D-Proline using the DAAOx (D-amino acid oxidase) test described below. L- amino acids may react at very low rate with DAAOx. For instance, DAAOx reacts with L-Proline 300 times slower than D-Proline. Consequently, when assessing amino acid racemization products, standards should consist of serial dilution of equimolar mixtures of specific D- and L-amino acids ranging from 0 to 20 mM (10 mM final) to take into account any interference of possible reactivity with DAAOx of the L- form of amino acids present in the samples.
Solution A consisting of 0.2 M sodium acetate/0.016 M sodium pyrophosphate (Pop) buffer, pH 8.3 was used to prepare the enzyme stock solutions conserved in 50% glycerol, namely: 50 U/ml D-amino acid oxidase from pig kidney (DAAOx, Sigma) and 5000 U/ml Horse Raddish Peroxydase (HRP, Sigma). Stock solutions of L- proline (1M), D- proline (1M) and Pyrrole-2-carboxylic acid (10 mM) (PYC, Sigma) are also prepared in solution A. 10^-1 M FAD (Sigma) stock was prepared in water. Solution B consists in adding to solution A the following reagents at a final concentration in the assay of 1 U/ml for DAAOx, 0.5 mg/ml orthophenylenediamine (OPD, Sigma), 37.5 U/ml HRP and FAD (1.5x10^-5 M FAD). The test is run in 96 wells micro plates (Nunc, Denmark). […] OD 490nm - 650nm is obtained with a microtiter plate reader (Molecular Devices), and compared to those obtained with blank control wells.
The values presented in Table 2A correspond to racemization reactions performed in the absence or in the presence of 10 µM concentration of the different ligands. […] Briefly, 22.4 mg/ml of active TcPRAC was used in the racemization assays of 10 mM L-proline substrate and the concentration of formed D-proline was determined by the DAAOx test, as described in the Material and Methods. […]

Vero cells = experiment: Toxicity for Vero cells, Trypan Blue exclusion; assay type: cell-based, green monkey; details: 10 µM, 48h
Protocol: Finally both the compounds OxoPA and Br-OxoPA were tested at a concentration of 10 µM for toxicity of Vero cells for 48h. Both compounds are not toxic as evaluated by Trypan Blue exclusion (not shown).

T1 sequence (Q4DA80 32-423): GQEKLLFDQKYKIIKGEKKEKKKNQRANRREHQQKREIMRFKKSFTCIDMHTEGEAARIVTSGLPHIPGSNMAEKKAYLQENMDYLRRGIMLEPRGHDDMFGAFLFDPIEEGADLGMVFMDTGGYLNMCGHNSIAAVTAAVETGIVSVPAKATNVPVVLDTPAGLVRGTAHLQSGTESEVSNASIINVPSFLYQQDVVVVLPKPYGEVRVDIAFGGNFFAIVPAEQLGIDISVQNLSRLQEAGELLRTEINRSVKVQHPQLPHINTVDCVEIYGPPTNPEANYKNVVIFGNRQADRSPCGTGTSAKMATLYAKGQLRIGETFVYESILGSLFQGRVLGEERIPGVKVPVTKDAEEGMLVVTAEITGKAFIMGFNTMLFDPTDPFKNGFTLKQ

Compound	inhibition of cellular infection (T. cruzi)	Formed D-Proline (TcPRAC)	toxicity of Vero cells (Vero cells)
O=C(O)/C=C/C(=O)CBr [Br-OxoPA, (E)-5-bromo-4-oxopent-2-enoic acid]	a clear dose dependent inhibition of cellular infection	< 0,3 mM	not toxic
CC(=O)/C=C/C(=O)O [OxoPA, (E)-4-oxopent-2-enoic acid]	a clear dose dependent inhibition of cellular infection	< 0,3 mM	not toxic
